The target in this assay is T1, human M1 receptor (hCHRM1) (Homo sapiens, UniProt P11229).
T1 construct: expressed in transfected cells
T1 sequence (P11229 1-460): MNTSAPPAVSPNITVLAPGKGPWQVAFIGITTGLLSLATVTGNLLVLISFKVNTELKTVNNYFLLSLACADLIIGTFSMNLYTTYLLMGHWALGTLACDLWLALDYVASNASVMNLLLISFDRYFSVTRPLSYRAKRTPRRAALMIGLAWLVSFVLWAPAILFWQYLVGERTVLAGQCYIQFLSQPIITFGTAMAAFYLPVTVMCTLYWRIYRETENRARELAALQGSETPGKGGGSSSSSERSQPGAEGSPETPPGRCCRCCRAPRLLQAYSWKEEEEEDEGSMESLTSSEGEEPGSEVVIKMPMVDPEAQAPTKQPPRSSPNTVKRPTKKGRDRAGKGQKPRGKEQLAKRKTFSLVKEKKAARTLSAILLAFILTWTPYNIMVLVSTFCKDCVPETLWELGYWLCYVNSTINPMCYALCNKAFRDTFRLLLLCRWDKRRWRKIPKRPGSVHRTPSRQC
The assay can be described thus: Measurement of M1 receptor positive allosteric modulator (M1PAM) activity, Ca2+ fluorescence by FLIPRtetra (Experimental Example 1). The assay is classed as cell-based. The settings on record: for activity (%) at 10 μM: 10 μM test compound, 100% = acetylcholine 1 μM, 0% = DMSO; for EC50: inflection point of concentration-dependent curve, in presence of acetylcholine at EC20 (0.8-1.0 nM), CHO-K1 cells expressing hCHRM1, read-out: IP value. Here is the method: Measurement of M1 Receptor Positive Allosteric Modulator (M1PAM) Activity
The activity of a test compound in the presence of acetylcholine at EC20 concentration (final concentration 0.8-1.0 nM), which affords an action corresponding to about 20% of the maximum activity, was measured as PAM activity. The method is as follows. CHO-K1 cells stably expressing a human M1 receptor (hCHRM1) were plated on a 384-well black clear bottom plate (BD Falcon) at 5,000 cells/well, and cultured in an incubator at 37° C., 5% CO2 for 1 day. The medium in the cell plate was removed, and a dye solution (prepared by adding Recording medium (DOJINDO LABORATORIES) to a final concentration of 1×concentration, Fluo-4 AM (DOJINDO LABORATORIES) to a final concentration of 2.5 μg/mL, Pluronic F127 (DOJINDO LABORATORIES) to a final concentration of 0.08%, and probenecid (DOJINDO LABORATORIES) to a final concentration of 1.25 mM to assay buffer (HBSS (Invitrogen), 20 mM HEPES (Invitrogen), 0.1% BSA (Wako Pure Chemical Industries, Ltd.))) was added at 30 μL/well. The cells were left standing in the incubator at 37° C., 5% CO2 for 30 min, and further left standing at room temperature for 30 min. A test compound prepared by diluting with assay buffer containing 3.2-4.0 nM acetylcholine was added at 10 μL/well, and the fluorescence was measured by FLIPRtetra (Molecular Devices) for 1 min every 1 second. With the definition that the amount of change in the fluorescence on addition of acetylcholine (final concentration 1 μM) is 100% and that on addition of DMSO instead of a test compound is 0%, the activity (%) of the test compound was calculated, and the inflection point in the concentration-dependent curve of the test compound was calculated as IP values.

For the compound `COc1c(Cc2ccc(-n3cccn3)nc2)cc2c(c1F)OCN([C@H]1CCC[C@@H]1O)C2=O` (relative stereo) [Example 15, 8-fluoro-3-(trans-2-hydroxycyclopentyl)-7-methoxy-6-((6-(1H-pyrazol-1-yl)pyridin-3-yl)methyl)-2,3-dihydro-4H-1,3-benzoxazin-4-one], the “activity (%) at 10 μM” value turned out to be 92% and the EC50 was determined as 19 nM.
On to `Cc1c(Cc2ccc(-n3cccn3)cc2)cc2c(c1F)OCN([C@H]1CCC[C@@H]1O)C2=O` (relative stereo) [Example 30, 8-fluoro-3-(trans-2-hydroxycyclopentyl)-7-methyl-6-(4-(1H-pyrazol-1-yl)benzyl)-2,3-dihydro-4H-1,3-benzoxazin-4-one], for which the “activity (%) at 10 μM” value turned out to be 102% and the EC50 worked out at 8.6 nM.
The corresponding values for `Cc1c(Cc2ccc(Cl)nc2)cc2c(c1C)OCN([C@H]1COCC[C@@H]1O)C2=O` (relative stereo) [Example 31, 1,5-anhydro-2-(6-((6-chloropyridin-3-yl)methyl)-7,8-dimethyl-4-oxo-2H-1,3-benzoxazin-3(4H)-yl)-2,4-dideoxy-threo-pentitol] are 99% and 17 nM.
The corresponding values for `Cc1ccc(Cc2cc3c(cc2C)OCN([C@H]2CCCC[C@@H]2O)C3=O)cn1` (relative stereo) [Example 33, 3-(trans-2-hydroxycyclohexyl)-7-methyl-6-((6-methylpyridin-3-yl)methyl)-2,3-dihydro-4H-1,3-benzoxazin-4-one] are 104% and 39 nM.
The corresponding values for `Cc1cc2c(cc1Cc1ccc(-n3cccn3)nc1)C(=O)N([C@H]1CCCC[C@@H]1O)CO2` (relative stereo) [Example 36, 3-(trans-2-hydroxycyclohexyl)-7-methyl-6-((6-(1H-pyrazol-1-yl)pyridin-3-yl)methyl)-2,3-dihydro-4H-1,3-benzoxazin-4-one] are 108% and 12 nM.
With `Cc1c(Cc2ccc(-n3ccnc3)nc2)cc2c(c1Cl)OCN([C@H]1CCC[C@@H]1O)C2=O` (relative stereo) [Example 39, 8-chloro-3-(trans-2-hydroxycyclopentyl)-6-((6-(1H-imidazol-1-yl)pyridin-3-yl)methyl)-7-methyl-2,3-dihydro-4H-1,3-benzoxazin-4-one], the “activity (%) at 10 μM” value is recorded as 88% and the EC50 stood at 1.5 nM.
With `Cn1cc(-c2ccc(Cc3cc4c(c5ccccc35)OCN([C@H]3CCCC[C@@H]3O)C4=O)cn2)cn1` (relative stereo) [Example 41, 3-(trans-2-hydroxycyclohexyl)-6-((6-(1-methyl-1H-pyrazol-4-yl)pyridin-3-yl)methyl)-2,3-dihydro-4H-naphtho[2,1-e][1,3]oxazin-4-one], the “activity (%) at 10 μM” value is recorded as 104% and the EC50 amounted to 1.8 nM.
In the case of `COc1c(Cc2ccc(-n3ccnc3)nc2)cc2c(c1F)OCN([C@H]1CCC[C@@H]1O)C2=O` (relative stereo) [Example 48, 8-fluoro-3-(trans-2-hydroxycyclopentyl)-6-((6-(1H-imidazol-1-yl)pyridin-3-yl)methyl)-7-methoxy-2,3-dihydro-4H-1,3-benzoxazin-4-one], the “activity (%) at 10 μM” value is 106% and the EC50 came out at 7.4 nM.
The corresponding values for `Cc1c(Cc2ccc(-c3cnn(C)c3)nc2)cc2c(c1C)OCN([C@H]1CCCC[C@@H]1O)C2=O` (relative stereo) [Example 49, 3-(trans-2-hydroxycyclohexyl)-7,8-dimethyl-6-((6-(1-methyl-1H-pyrazol-4-yl)pyridin-3-yl)methyl)-2,3-dihydro-4H-1,3-benzoxazin-4-one] are 108% and 8 nM.
The corresponding values for `Cc1c(Cc2ccc(-n3cccn3)nc2)cc2c(c1Cl)OCN([C@H]1CCC[C@@H]1O)C2=O` (relative stereo) [Example 51, 8-chloro-3-(trans-2-hydroxycyclopentyl)-7-methyl-6-((6-(1H-pyrazol-1-yl)pyridin-3-yl)methyl)-2,3-dihydro-4H-1,3-benzoxazin-4-one] are 101% and 9.7 nM.
The corresponding values for `Cc1cc2c(cc1Cc1ccc(-n3cccn3)cc1)C(=O)N([C@H]1CCCC[C@@H]1O)CO2` (relative stereo) [Example 52, 3-(trans-2-hydroxycyclohexyl)-7-methyl-6-(4-(1H-pyrazol-1-yl)benzyl)-2,3-dihydro-4H-1,3-benzoxazin-4-one] are 101% and 11 nM.
Turning to `Cc1c(Cc2ccc(-n3cccn3)cc2)cc2c(c1C)OCN([C@H]1CCCC[C@@H]1O)C2=O` (relative stereo) [Example 53, 3-(trans-2-hydroxycyclohexyl)-7,8-dimethyl-6-(4-(1H-pyrazol-1-yl)benzyl)-2,3-dihydro-4H-1,3-benzoxazin-4-one], the “activity (%) at 10 μM” value came to 96% and the EC50 was 11 nM.
In the case of `O=C1c2cc(Cc3ccc(Cl)nc3)c3ccccc3c2OCN1[C@H]1CCCC[C@@H]1O` (relative stereo) [Example 56, 6-((6-chloropyridin-3-yl)methyl)-3-(trans-2-hydroxycyclohexyl)-2,3-dihydro-4H-naphtho[2,1-e][1,3]oxazin-4-one], the “activity (%) at 10 μM” value came to 109% and the EC50 amounted to 16 nM.
The corresponding values for `COc1ccc(Cc2cc3c(c(C)c2C)OCN([C@H]2COCC[C@@H]2O)C3=O)cc1` (relative stereo) [Example 59, 1,5-anhydro-2,4-dideoxy-2-(6-(4-methoxybenzyl)-7,8-dimethyl-4-oxo-2H-1,3-benzoxazin-3(4H)-yl)-threo-pentitol] are 99% and 21 nM.
Regarding `Cc1cc2c(cc1Cc1ccc(Cl)nc1)C(=O)N([C@H]1CCCC[C@@H]1O)CO2` (relative stereo) [Example 62, 6-((6-chloropyridin-3-yl)methyl)-3-(trans-2-hydroxycyclohexyl)-7-methyl-2,3-dihydro-4H-1,3-benzoxazin-4-one], the “activity (%) at 10 μM” value worked out at 91%.
For `Cn1cc(-c2ccc(Cc3ccc4c(c3)C(=O)N([C@H]3CCCC[C@@H]3O)CO4)cn2)cn1` (relative stereo) [Example 63, 3-(trans-2-hydroxycyclohexyl)-6-((6-(1-methyl-1H-pyrazol-4-yl)pyridin-3-yl)methyl)-2,3-dihydro-4H-1,3-benzoxazin-4-one], the “activity (%) at 10 μM” value was determined as 99% and the EC50 was determined as 32 nM.
The corresponding values for `Cc1cc(Cc2ccc(-n3cccn3)cc2)cc2c1OCN([C@H]1CCCC[C@@H]1O)C2=O` (relative stereo) [Example 65, 3-(trans-2-hydroxycyclohexyl)-8-methyl-6-(4-(1H-pyrazol-1-yl)benzyl)-2,3-dihydro-4H-1,3-benzoxazin-4-one] are 99% and 35 nM.
The corresponding values for `Cn1cc(-c2ccc(Cc3ccc4c(c3)C(=O)N([C@H]3CCCC[C@@H]3O)CO4)cc2)cn1` (relative stereo) [Example 66, 3-(trans-2-hydroxycyclohexyl)-6-(4-(1-methyl-1H-pyrazol-4-yl)benzyl)-2,3-dihydro-4H-1,3-benzoxazin-4-one] are 93% and 44 nM.
The corresponding values for `Cc1cc2c(cc1CN1CCC(F)(F)CC1)C(=O)N([C@H]1CCCC[C@@H]1O)CO2` (relative stereo) [Example 85, 6-((4,4-difluoropiperidin-1-yl)methyl)-3-(trans-2-hydroxycyclohexyl)-7-methyl-2,3-dihydro-4H-1,3-benzoxazin-4-one] are 104% and 110 nM.
As for `COc1ccc(Cc2cc3c(cc2C)OCN([C@H]2COCC[C@@H]2O)C3=O)cc1` (relative stereo) [Example 86, 1,5-anhydro-2,4-dideoxy-2-(6-(4-methoxybenzyl)-7-methyl-4-oxo-2H-1,3-benzoxazin-3(4H)-yl)-threo-pentitol], the “activity (%) at 10 μM” value stood at 99% and the EC50 worked out at 100 nM.

Source of the values: patent publication US10323027B2, “2,3-dihydro-4H-1,3-benzoxazin-4-one derivatives as modulators of cholinergic muscarinic M1 receptor” (Takeda Pharmaceutical Company Limited, priority 2015, dated 2019).
